# From patent publication US20120082626A1, “USE OF R-BAMBUTEROL AS INHALED MEDICAMENT AND COMBINATION THERAPIES FOR TREATMENT OF RESPIRATORY DISORDERS” (priority 2009, published 2012)
# “Also recorded” adds a separate entry of the source.
# Assays:
# [1] = tested on: histamine evoked asthma in conscious guinea-pigs; assay: Protection against histamine-evoked asthma by inhaled drug in conscious guinea pigs; assay type: in vivo, guinea pigs (Dunkin-Hartley strain); settings: for Latency: no collapse over 360 sec recorded as 360
# Method: (§1) Test methods: Guinea pigs (Dunkin-Hartley strain, 200±30 g) were fasted overnight but given water ad libidum. The animals were restrained individually in a glass chamber and exposed to aerosol histamine generated by a nebulizer from a 0.2% aqueous solution of histamine under constant pressure at dose of 0.5 ml/min for a period of 15 sec. The animal was removed from the chamber, and its behavior was monitored. Assign of collapse and the latency time from exposure to collapse were recorded. Only the animals with latency time less than 120 sec, as an indication of sensitive to histamine, were chosen for later experiments. The animals chosen were allowed to recover completely by resting for 24 hours before experiments. R-bambuterol and racemic bambuterol hydrochloride were dissolved in saline and nublized in a nebulizer.
# Study of dose-response: One hours before the exposure to aerosol histamine, animals were randomized into groups (n=8, equal sex), and Nublized R-bambuterol hydrochloride or bambuterol hydrochloride in doses of 63, 126, 252 and 504 μg/kg, and vehicle control were inhaled by the animals via a mouth and nasal mask. The numbers of collapsed animal as a result of asthmatic reaction to aerosol histamine were counted, and the latency times were recorded. Both of these parameters were used as quantitative measurements of the protective effects of the treatments on bronchospasm evoked by aerosol histamine.
# [2] = tested on: histamine evoked asthma in conscious guinea-pigs; assay: Histamine-evoked asthma in conscious guinea pigs after oral administration; assay type: in vivo, guinea pigs (Dunkin-Hartley strain); settings: for Latency: no collapse over 360 sec recorded as 360
# Method: as §1
# Comparison of the anti-asthma effects of R-bambuterol (R-BM) and bambuterol (RS-BM) administered by oral and by inhalation in conscious guinea pigs. Test methods: same as Example 1.
# Study of dose-response: Same as Example 1, except the following: four hours before the exposure to aerosol histamine, animals were randomized into groups (n=8, equal male and female), and given R-bambuterol hydrochloride or racemic bambuterol hydrochloride in doses of 1.0, 2.0, 4.0 and 8.0 mg/kg, and vehicle control, orally via a stomach tube.
# [3] = tested on: histamine evoked asthma in conscious guinea-pigs; assay: Time course of anti-asthma effects after oral administration or inhalation; assay type: in vivo; settings: for No. of collapsed: n=8
# Method: The time course of the anti-asthma effects of R-bambuterol (R-BM) and bambuterol (RS-BM) after administered by oral and by inhalation. Test Methods: same as example 1 except the following:
# For orally administration, R-Bambuterol hydrochloride or racemic bambuterol hydrochloride at 4 and 8 mg/kg, and vehicle alone, were administered to the guinea pigs orally via a stomach tube. Exposure of treated animals to aerosol histamine (as above) was done at 1, 4 and 12 hours after R-bambuterol or bambuterol treatment. For each experimental group, there were a total of 8 animals with equal number in sex, and no repeated exposure was made for individual experimental animals.
# For inhalation, R-Bambuterol hydrochloride or racemic bambuterol hydrochloride at 0.252 and 0.504 mg/kg, and vehicle alone, were nebulized and administered to the guinea pigs by inhalation. Exposure of drug treated animals to aerosol histamine (as above) was done at 1,4 and 12 hours after drug treatment. For each experimental group, there were a total of 8 animals with equal number in sex, and no repeated exposure was made for individual experimental animals.
# [4] = tested on: OVA evoked asthma in sensitized guinea pigs; assay: Airway resistance and dynamic pulmonary compliance after inhalation in OVA sensitized guinea pigs; assay type: in vivo; settings: for protection against asthma attack by antigen (OVA) challenge: pretreatment by inhalation about three minutes before OVA challenge; for change of Raw and Cdyn at resting state after inhalation: before OVA challenge
# Method: Sensitization of animals: Ovalbumin (10 μg/ml) was injected into guinea-pigs subcutaneously and coincidentally with an intraperitoneal injection of B. pertussis vaccine. Identical injection of ovalbumin and adjuvant were made day 15 and 21 days later. On day 28th the animals were examined and used for studies.
# Test Methods: The sensitized guinea pigs wer anaethetized. A cannula was inserted into the trachea. A plueral cannula was inserted into pleural space through the chest wall. Airway resistance (Raw) and dynamic pulmonary compliance (Cdyn) were measured by using the signals of intraplueral pressure, airflow and tidal volume.
# The animals were restreined in closed chamber and nebulized R-bambuterol or S-bambuterol were inhaled at the dose of 126 μg/kg. After three minutes conditioning, the animals were then challenged with nebulized OVA to evoke asthma. Airway resistance (Raw) and dynamic pulmonary compliance (Cdyn) were measured before and after evoking asthma.
# [5] = tested on: OVA evoked asthma in sensitized guinea-pigs; assay: Relief of antigen-evoked asthma by inhalation after challenge in OVA sensitized guinea-pigs; assay type: in vivo; settings: nebulized drug inhaled after antigen challenge
# Description: In an embodiment of the invention, the ovalbumin (OVA) sensitized guinea-pigs were first challenged with nebulized antigen to evoke asthma, then the animals were allowed to inhale nebulized R-bambuterol or bambuterol. […] In a further embodiment of the invention, the sensitized guinea-pigs were first pretreated with nebulized R-bambuterol or bambuterol by inhalation. After three minutes, the same animals were challenged with nebulized antigen. […] The fast onset of action in the invention can also not be explained by Svenssion's in vitro metabolic study noted above that the dominate product is mono-carbamate bambuterol and litter terbutaline at initial phase., while the major amount of terbutaline will be formed at much later phase. (Svensson et al., 1988).
# [6] = cited from earlier work
# [7] = tested on: asthma evoked by intravenously administrated histamine; settings: anesthetized guinea pigs, intravenous histamine; cited from earlier work
# [8] = tested on: bronchial and lung preparations; settings: in vitro; cited from earlier work
# [9] = tested on: OVA evoked asthma in sensitized guinea pigs; assay: Airway resistance in OVA asthma attack after oral administration in sensitized guinea pigs; assay type: in vivo
# Method: Sensitized animals were divided into Saline (control), S-Bambuterol and R-bambuterol groups. R or S bambuterol were administered by both inhalation by oral ([…]). Airway resistance (Raw) and dynamic pulmonary compliance (Cdyn) were measured at resting or during astham challenge by OVA. Animal preparation and experimental methods were similar as described previously.
# [10] = tested on: OVA evoked asthma in sensitized guinea pigs; assay: Drug tolerance to R-bambuterol induced by pretreatment; assay type: in vivo
# Method: Animal sensitization and experiment methods were similar as discribed above. Briefly, animals were divided into three groups. R-bambuterol (8 mg/kg) or S-bamburerol (8 mg/kg) or 0.9% NaCL (control) were given orally in equal volum to each group seperatedly once a day for 7 consecutive days in order to induce drug tolerances. The Protection effects of same dosage of R-bambuterol against asthma attack induced by OVA challenge were evaluated by the changes of Airway resistance (Raw) and dynamic pulmonary compliance (Cdyn).
# [11] = inhale, at maximum effective dose (R-BM 0.252, RS-BM 0.505 mg/Kg)
# [12] = oral, at maximum effective dose (R-BM 4.0, RS-BM 8.0 mg/Kg)
# [13] = inhalation (R-BM 252 μg/kg, RS-BM 504 μg/kg), histamine 60 min after
# [14] = inhalation (R-BM 252 μg/kg, RS-BM 504 μg/kg), histamine 240 min after
# [15] = inhalation (R-BM 252 μg/kg, RS-BM 504 μg/kg), histamine 720 min after
# [16] = oral (R-BM 4.0 mg/kg, RS-BM 8.0 mg/kg), histamine 60 min after
# [17] = oral (R-BM 4.0 mg/kg, RS-BM 8.0 mg/kg), histamine 240 min after
# [18] = oral (R-BM 4.0 mg/kg, RS-BM 8.0 mg/kg), histamine 720 min after
# [19] = pretreated with the labelled substance 8 mg/kg orally once a day 7 days, then R-bambuterol, OVA challenge, n=8
smiles,measurement,setting,value
CN(C)C(=O)Oc1cc(OC(=O)N(C)C)cc(C(O)CNC(C)(C)C)c1 (racemic) [bambuterol],dosage required for maximum anti-asthmatic effects (complete protection against histamine) by inhalation,[1]; inhalation,512 µg/kg
same,maximum effective dose required by inhalation,[1]; inhale,Inhale (0.505) mg/Kg
same,Animal collapsed (%),[1]; [11],0%
same,Animal collapsed (number/group),[1]; [11],0/8
same,Latency,[1]; inhaled 63 μg/Kg,42 ± 9 s
same,Latency,[1]; inhaled 126 μg/Kg,85 ± 112 s
same,Latency,[1]; inhaled 252 μg/Kg,209 ± 162 s
same,Latency,[1]; inhaled 504 μg/Kg,360 ± 0 s
same,Oral:Inhale ratio of maximum effective dose,[1]; oral dose vs inhaled dose for maximum anti-asthmatic effect,16
same,maximum effective dose required by oral (none of the histamine challenged animals collapsed),[2]; oral,8 mg/kg
same,Latency,[2]; oral 1.0 mg/Kg,151 ± 130 s
same,Latency,[2]; oral 2.0 mg/Kg,227 ± 143 s
same,Latency,[2]; oral 4.0 mg/Kg,299 ± 113 s
same,Latency,[2]; oral 8.0 mg/Kg,360 ± 0 s
same,Animal collapsed (%),[2]; [12],0%
same,Animal collapsed (number/group),[2]; [12],0/8
same,maximum effective dose required by oral (none of the histamine challenged animals collapsed),"[2]; oral, listed as RS-BM",Oral (8.0 ) mg/Kg
same,Latency,[3]; [13],360 ± 0 s
same,No. of collapsed,[3]; [13],0/8
same,Latency,[3]; [14],360 ± 0 s
same,No. of collapsed,[3]; [14],0/8
same,Latency,[3]; [15],287 ± 136 s
same,No. of collapsed,[3]; [15],2/8
same,maximum anti-asthmatic effects by inhalation faster than by oral administration,[3]; inhalation vs oral,4 h
same,Latency,[3]; [16],260 ± 131 s
same,No. of collapsed,[3]; [16],3/8
same,Latency,[3]; [17],360 ± 0 s
same,No. of collapsed,[3]; [17],0/8
same,Latency,[3]; [18],360 ± 0 s
same,No. of collapsed,[3]; [18],0/8
same,protection against asthma attack by antigen (OVA) challenge,[4],significant anti-asthma effects
same,relief of asthmatic symptoms after inhalation,[5],immediately relieved within matter of tenths of seconds to a couple of minutes
same,duration of blood concentration of active parent drug,[6]; after an oral administration,up to 24 hours
same,concentration in lungs relative to plasma,[6]; after oral administration (Svensson 1991),~20 times
same,amount needed relative to terbutaline to reach the same concentration of terbutaline in blood,"[6]; given orally, on molar basis",5 times
same,tmax of terbutaline released from bambuterol later than tmax of terbutaline taken orally,[6]; oral (Olsson et al. 1984),four
same,time of maximum concentration (tmax),[6]; oral,around one
same,bronchospasmolytic effects when inhaled,[7],inactive and lack bronchospasmolytic effects
same,relaxation effects,[8],no relaxation effects
CN(C)C(=O)Oc1cc(OC(=O)N(C)C)cc([C@H](O)CNC(C)(C)C)c1 [S-bambuterol],change of Raw and Cdyn at resting state after inhalation,[4],increasing airway resistance and reducing pulmonary dynamic compliance; also recorded: significant increase in airway resistance (Raw) and decrease in pulmonary compliance (Cdyn)
same,change of Raw and Cdyn at resting state after inhalation,[4]; listed as S-Bambuterol,significant increase in Raw and decrease in Cdyn
same,collapse induced by inhalation per se,"[4]; inhalation, sensitized guinea pigs",induced a collapes of a guinea pig
same,protection against asthma attack by antigen (OVA) challenge,[4],no such protection at all; also recorded: inactive in protectoin against asthma attack
same,change of Raw and Cdyn during the asthma attack comparing to control,[4]; treated by inhalation,greater increase in airway resistance (Raw) and decrease in pulmonary compliance (Cdyn)
same,change of Raw and Cdyn in resting state,[9]; given orally,little changes in either Raw and Cdyn
same,change in Raw / asthmatic response during the asthmatic attack by OVA,[9]; oral,significantly enhance the asthmatic response to OVA challenge than control; also recorded: significant increases in Raw; also recorded: significantly worsen the asthmatic response
same,Changes in Airway resistance (Raw) at 4th min after OVA challenge,"[9]; pretreated oral 4 m/kg, n=8",2.40 ± 0.96
same,Changes in Airway resistance (Raw) at 5th min after OVA challenge,"[9]; pretreated oral 4 m/kg, n=8",2.41 ± 0.98
same,protection effects of R-bambuterol against asthmatic attack after pretreatment,[10]; group pretreated with the labelled substance,significantly reduced
same,Changes in Cdyn During asthma,[10]; [19],−0.25 ± 0.10
same,Changes in Raw During asthma,[10]; [19],+0.36 ± 0.23
